Values joined by “and” are separate entries in the source; they are usually repeats but may differ in a detail not shown here. Equal entries are not always repeated. Where two headings read alike, the source gives them in different places. Bounds are passed on as bounds.

Consider 20 compounds from patent US20230113037A1 (Bayer Aktiengesellschaft, priority 2019, published 2023).

For test [1], the target named is T1, AHR (Mus musculus, UniProt P30561).
T1 sequence (P30561 1-848 P471L/N533S/M589L): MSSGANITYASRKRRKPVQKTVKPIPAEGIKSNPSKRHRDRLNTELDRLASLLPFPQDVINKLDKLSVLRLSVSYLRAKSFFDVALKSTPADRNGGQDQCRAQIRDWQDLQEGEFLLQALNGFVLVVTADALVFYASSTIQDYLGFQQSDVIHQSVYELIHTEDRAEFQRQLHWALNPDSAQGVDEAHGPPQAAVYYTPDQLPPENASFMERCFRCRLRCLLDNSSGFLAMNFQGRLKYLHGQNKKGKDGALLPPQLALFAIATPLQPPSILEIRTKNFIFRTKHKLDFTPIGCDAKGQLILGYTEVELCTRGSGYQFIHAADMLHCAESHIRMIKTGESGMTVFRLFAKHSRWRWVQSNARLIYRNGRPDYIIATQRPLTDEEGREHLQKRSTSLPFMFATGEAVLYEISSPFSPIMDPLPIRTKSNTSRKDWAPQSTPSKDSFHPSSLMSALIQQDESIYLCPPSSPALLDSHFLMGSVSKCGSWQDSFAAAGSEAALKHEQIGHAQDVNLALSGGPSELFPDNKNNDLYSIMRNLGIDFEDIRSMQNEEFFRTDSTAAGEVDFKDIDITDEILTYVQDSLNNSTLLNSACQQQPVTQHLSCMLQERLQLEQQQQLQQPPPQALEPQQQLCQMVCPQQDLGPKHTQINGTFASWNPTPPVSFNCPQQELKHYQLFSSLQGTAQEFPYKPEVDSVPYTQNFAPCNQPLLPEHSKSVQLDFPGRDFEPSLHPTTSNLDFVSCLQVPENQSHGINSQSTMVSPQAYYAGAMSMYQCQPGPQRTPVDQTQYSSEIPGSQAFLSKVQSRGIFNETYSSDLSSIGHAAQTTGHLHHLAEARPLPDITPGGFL
Briefly: In vitro assay 3: antagonism in mouse cell line (AHR transactivation, firefly luciferase reporter, kynurenic acid prestimulated). It counts as cell-based. A digest of the protocol:
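Antagonism read as reduced firefly luciferase signal (SteadyGlo) from a stably transfected AHR/DRE reporter in a mouse line prestimulated with kynurenic acid. Data normalized to controls, the full-inhibition control being cells without kynurenic acid; multiple determinations given as average or median values.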

The target in test [2] is T2, AHR (Homo sapiens, UniProt P35869).
T2 construct: U87 MG glioblastoma cells (ATCC #HTB-14) endogenously expressing AHR; endogenous in cells; host or cells: U87 MG glioblastoma cells (ATCC #HTB-14)
T2 sequence (P35869 11-848): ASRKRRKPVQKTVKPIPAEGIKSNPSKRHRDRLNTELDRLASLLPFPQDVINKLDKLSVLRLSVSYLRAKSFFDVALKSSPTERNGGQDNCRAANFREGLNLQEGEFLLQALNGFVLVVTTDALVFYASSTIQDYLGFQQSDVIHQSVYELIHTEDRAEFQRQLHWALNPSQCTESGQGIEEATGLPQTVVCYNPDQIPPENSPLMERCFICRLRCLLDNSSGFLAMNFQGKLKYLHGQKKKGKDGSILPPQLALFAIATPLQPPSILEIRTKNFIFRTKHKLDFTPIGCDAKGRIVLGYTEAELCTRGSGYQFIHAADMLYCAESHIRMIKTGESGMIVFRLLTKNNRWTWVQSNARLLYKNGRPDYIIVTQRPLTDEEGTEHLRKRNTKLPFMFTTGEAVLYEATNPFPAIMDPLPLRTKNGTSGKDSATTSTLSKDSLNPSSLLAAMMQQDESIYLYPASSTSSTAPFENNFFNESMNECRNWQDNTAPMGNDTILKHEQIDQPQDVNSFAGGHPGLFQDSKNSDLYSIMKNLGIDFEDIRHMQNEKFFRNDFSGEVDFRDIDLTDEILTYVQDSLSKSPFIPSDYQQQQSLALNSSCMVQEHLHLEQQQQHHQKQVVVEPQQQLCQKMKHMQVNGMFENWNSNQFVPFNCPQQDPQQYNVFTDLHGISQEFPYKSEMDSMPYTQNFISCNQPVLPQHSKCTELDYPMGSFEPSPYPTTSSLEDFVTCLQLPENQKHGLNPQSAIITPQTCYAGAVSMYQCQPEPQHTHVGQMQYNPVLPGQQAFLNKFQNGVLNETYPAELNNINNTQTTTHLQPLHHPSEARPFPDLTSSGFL
Briefly: In vitro assay 1: antagonism in human cell line (AHR transactivation, firefly luciferase reporter, kynurenic acid prestimulated). It counts as cell-based. The settings on record: AHR Antagonism Human IC50 [M]. A digest of the protocol:
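Antagonism measured as loss of kynurenic acid-driven firefly luciferase from DRE reporter in stably transfected U87 MG cells; constitutive Renilla signal monitors cytotoxicity. Positive/negative control normalization, staurosporine 5 μM with 150 μM kynurenic acid as inhibition control; replicates given as mean or median.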

Where [3] appears, read: Hepa 1c1c7 cells, 200 μM kynurenic acid, 20 hours, firefly luciferase reporter, read-out: AHR Antagonism Mouse IC50.
Setting [4] is: mouse Hepa 1c1c7 cells, 200 μM kynurenic acid, 20 hours, read-out: AHR Antagonism Mouse IC50.
The mark [5] stands for this setting: read-out: AHR Antagonism Mouse IC50, mouse Hepa 1c1c7 cells, 200 μM kynurenic acid, 20 hours.

As for `CC(C)n1cc(-c2nc3c4cccc(C(F)(F)F)c4nc(N[C@@H]4CSCCNC4=O)n3n2)cn1` [Example 838, (6S)-6-({2-[1-(propan-2-yl)-1H-pyrazol-4-yl]-7-(trifluoromethyl)[1,2,4]triaozlo[1,5-c]quinazolin-5-yl}amino)-1,4-thiazepan-5-one], the IC50 on AHR [1] (setting [3]) was 0.00202 µM; at AHR [2] (firefly luciferase reporter), 9.63e-10 M.
As for `Cc1ccccc1-c1nc2c3ccccc3nc(NC3CNCCNC3=O)n2n1` (single isomer, unassigned) [Example 47, 6-{[2-(2-methylphenyl)[1,2,4]triazolo[1,5-c]quinazolin-5-yl]amino}-1,4-diazepan-5-one], the half-inhibitory concentration (IC50) on AHR [1] (setting [4]) stood at 0.0279 µM; against AHR [2], 1.86e-08 M.
As for `CN1CCCC[C@@H](Nc2nc3c(C(F)(F)F)cccc3c3nc(-c4cnn(C)c4)nn23)C1=O` [Example 739, (3R)-1-methyl-3-{[2-(1-methyl-1H-pyrazol-4-yl)-7-(trifluoromethyl)[1,2,4]triazolo[1,5-c]quinazolin-5-yl]amino}azepan-2-one], the IC50 was 0.0014 µM at AHR [1] (setting [4]) and 6.64e-10 M at AHR [2].
In the same order, the values of `COc1ccc(-c2nc3c4cccc(Cl)c4nc(N[C@@H]4CNCCNC4=O)n3n2)cc1` [Example 421, (6R)-6-{[7-chloro-2-(4-methoxyphenyl)[1,2,4]triazolo[1,5-c]quinazolin-5-yl]amino)-1,4-diazepan-5-one] are 0.00069 µM and 7.09e-10 M.
For the compound `CC(C)c1cccc2c1nc(N[C@@H]1CCCCNC1=O)n1nc(-c3ccc(F)cc3)nc21` [Example 393, (3R)-3-{[2-(4-Fluorophenyl)-7-(propan-2-yl)[1,2,4]triazolo[1,5-c]quinazolin-5-yl]amino}azepan-2-one], the concentration for half-maximal inhibition (IC50) at AHR [1] (setting [5]) worked out at 0.0342 µM; at AHR [2] it was 4.34e-08 M.
Take `COc1cccc(-c2nc3c4ccccc4nc(N[C@@H](CCCCN)C(N)=O)n3n2)c1` [Example 114, N^2-[2-(3-methoxyphenyl)[1,2,4]triazolo[1,5-c]quinazolin-5-yl]-L-lysinamide]: the IC50 was 5.51 µM and > 5.71 µM on AHR [1] (setting [4]); > 2e-05 M on AHR [2].
As for `CCCCNC(=O)CNc1nc2ccccc2c2nc(-c3ccncc3F)nn12` [Example 485, N-butyl-N^2-[2-(3-fluoropyridin-4-yl)[1,2,4]triazolo[1,5-c]quinazolin-5-yl]glycinamide], the figures for the IC50 at AHR [1] (setting [4]) and against AHR [2] were 10.1 µM and 7.54e-07 M, respectively.
As to `O=C1NCC[C@H]1Nc1nc2ccccc2c2nc(-c3cc(Cl)ccc3OC(F)(F)F)nn12` [Example 500, (3R)-3-({2-[5-chloro-2-(trifluoromethoxy)phenyl][1,2,4]triazolo[1,5-c]quinazolin-5-yl}amino)pyrrolidin-2-one], the IC50 at AHR [1] (setting [4]) is 2.97 µM; against AHR [2], > 2e-05 M.
On the same counts, the results for `O=C1NCCCC[C@H]1Nc1nc2ccccc2c2nc(-c3cn[nH]c3)nn12` [Example 69, (3R)-3-{[2-(1H-pyrazol-4-yl)[1,2,4]triazolo[1,5-c]quinazolin-5-yl]amino}azepan-2-one] are 0.46 µM and 3.59e-07 M.
On to `CC(C)(C)n1nccc1-c1nc2c3ccccc3nc(N[C@@H]3CCCCNC3=O)n2n1` [Example 608, (3R)-3-{[2-(1-tert-butyl-1H-pyrazol-5-yl)[1,2,4]triazolo[1,5-c]quinazolin-5-yl]amino}azepan-2-one], for which the figures for the IC50 at AHR [1] (setting [4]) and against AHR [2] were 0.0255 µM and 1.12e-07 M, respectively.
In the same order, the values of `O=C1NCCCCCC1Nc1nc2ccccc2c2nc(-c3ccccc3OC(F)F)nn12` (stereo not shown) [Example 474, 3-({2-[2-(difluoromethoxy)phenyl][1,2,4]triazolo[1,5-c]quinazolin-5-yl}amino)azocan-2-one] are 0.00137 µM and 3.11e-09 M.
With `COc1ccc(-c2nc3c4c(OC)cccc4nc(N[C@@H]4CCCCNC4=O)n3n2)cc1` [Example 245, (3R)-3-{[10-methoxy-2-(4-methoxyphenyl)[1,2,4]triazolo[1,5-c]quinazolin-5-yl]amino}azepan-2-one], the IC50 was found to be 0.31 µM on AHR [1] (setting [4]) and 3.21e-08 M at AHR [2].
`CC[C@@H](Nc1nc2ccccc2c2nc(-c3cnccn3)nn12)C(N)=O` [Example 691, (2R)-2-{[2-(pyrazin-2-yl)[1,2,4]triazolo[1,5-c]quinazolin-5-yl]amino}butanamide]: the IC50 came out at 0.24 µM on AHR [1] (setting [4]) and 5.61e-07 M against AHR [2].
Take `CCOC(=O)[C@@H](C)Nc1nc2ccccc2c2nc(-c3ccc(OC)cc3)nn12` [Example 657, ethyl N-[2-(4-methoxyphenyl)[1,2,4]triazolo[1,5-c]quinazolin-5-yl]-D-alaninate]: the values for the IC50 on AHR [1] (setting [4]) and at AHR [2] were 0.0821 µM and 1.4e-08 M, respectively.
Consider `CC(C)[C@@H](Nc1nc2c(Br)cccc2c2nc(-c3cnn(C)c3)nn12)C(=O)N1CCOCC1` [Example 926, (2R)-2-{[7-bromo-2-(1-methyl-1H-pyrazol-4-yl)[1,2,4]triazolo[1,5-c]quinazolin-5-yl]amino}-3-methyl-1-(morpholin-4-yl)butan-1-one], for which the IC50 was 0.00616 µM at AHR [1] (setting [3]) and 3.45e-08 M against AHR [2] (firefly luciferase reporter).
On to `Cc1ccccc1-c1nc2c3ccccc3nc(N[C@@H]3CCCCNC3=O)n2n1` [Example 42, (3R)-3-{[2-(2-methylphenyl)[1,2,4]triazolo[1,5-c]quinazolin-5-yl]amino}azepan-2-one], for which the IC50 on AHR [1] (setting [5]) stood at 0.000158 µM; against AHR [2], 3.03e-10 M.
In the case of `COc1ccccc1-c1nc2c3ccccc3nc(N[C@@H]3CCCCNC3=O)n2n1` [Example 61, (3R)-3-{[2-(2-methoxyphenyl)[1,2,4]triazolo[1,5-c]quinazolin-5-yl]amino}azepan-2-one], the results for the half-maximal inhibitory concentration (IC50) on AHR [1] (setting [4]) and on AHR [2] were 0.664 µM and 3.63e-08 M, respectively.
Consider `Cn1cc(-c2nc3c4cccc(C#N)c4nc(N[C@@H]4CNCCNC4=O)n3n2)cn1` [Example 930, 2-(1-methyl-1H-pyrazol-4-yl)-5-{[(6R)-5-oxo-1,4-diazepan-6-yl]amino}[1,2,4]triazolo[1,5-c]quinazoline-7-carbonitrile], for which the figures for the IC50 at AHR [1] (setting [3]) and on AHR [2] (firefly luciferase reporter) were 14.1 µM and 5.21e-06 M, respectively.
On to `COc1ccc(-c2nc3c4cc(C(C)C)ccc4nc(N[C@@H]4CCCCNC4=O)n3n2)cc1` [Example 392, (3R)-3-{[2-(4-Methoxyphenyl)-9-(propan-2-yl)[1,2,4]triazolo[1,5-c]quinazolin-5-yl]amino}azepan-2-one], for which the IC50 stood at 0.0315 µM on AHR [1] (setting [4]) and 2.38e-07 M against AHR [2].
Regarding `COc1ccc(-c2nc3c4cccc(C5CC5)c4nc(N[C@H]4CNCCNC4=O)n3n2)cc1` [Example 959, (6S)-6-{[7-cyclopropyl-2-(4-methoxyphenyl)[1,2,4]triazolo[1,5-c]quinazolin-5-yl]amino}-1,4-diazepan-5-one], the results for the IC50 at AHR [1] (setting [3]) and at AHR [2] (firefly luciferase reporter) were 0.368 µM and 5.36e-08 M, respectively.
